Results reported in publication PMC7265341, “Quantifying CDK inhibitor selectivity in live cells” (Nature Communications, 2020).
Where two headings read alike, the source gives them in different places.

Columns and labels:
Assay type in all cases: binding
CDK3/Cyclin E1 = CDK3/Cyclin E1 (Homo sapiens, UniProt Q00526); test: NanoBRET live-cell target engagement, CDK3-NanoLuc/Cyclin E1 in HEK-293; details: for inhibition at 10 µM: read-out: CDK3/E1 Inhibition at 10µM (%); for IC50: read-out: CDK3/E1 IC50
CDK3/Cyclin E1, sequence (Q00526 whole entry): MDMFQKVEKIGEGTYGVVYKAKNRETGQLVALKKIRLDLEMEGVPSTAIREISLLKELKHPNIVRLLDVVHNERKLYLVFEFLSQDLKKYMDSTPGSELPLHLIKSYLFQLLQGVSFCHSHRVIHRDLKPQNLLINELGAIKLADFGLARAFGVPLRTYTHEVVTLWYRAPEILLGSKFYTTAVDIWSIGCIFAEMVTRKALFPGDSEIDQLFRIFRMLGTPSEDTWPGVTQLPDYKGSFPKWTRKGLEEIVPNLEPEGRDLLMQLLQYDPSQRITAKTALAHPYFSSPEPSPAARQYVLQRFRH
CDK3/Cyclin E1, sequence (P24864 whole entry partner): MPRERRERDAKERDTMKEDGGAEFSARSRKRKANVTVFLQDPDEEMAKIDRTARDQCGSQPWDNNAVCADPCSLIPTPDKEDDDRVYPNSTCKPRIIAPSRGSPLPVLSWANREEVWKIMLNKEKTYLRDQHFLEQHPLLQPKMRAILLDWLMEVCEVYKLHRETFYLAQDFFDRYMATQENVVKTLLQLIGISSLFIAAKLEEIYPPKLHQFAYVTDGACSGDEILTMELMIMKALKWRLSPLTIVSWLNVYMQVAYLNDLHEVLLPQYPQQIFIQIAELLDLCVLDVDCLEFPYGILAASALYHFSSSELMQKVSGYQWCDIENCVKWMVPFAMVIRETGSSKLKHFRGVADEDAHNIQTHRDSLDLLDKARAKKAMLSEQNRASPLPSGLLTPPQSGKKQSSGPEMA

CDK7 = CDK7 (Homo sapiens, UniProt P50613); test: NanoBRET live-cell target engagement, NanoLuc-CDK7 in HEK-293; details: for inhibition at 10 µM: read-out: CDK7 Inhibition at 10µM (%); for CDK7 Occupancy (%): Panel A
CDK7, sequence (P50613 whole entry): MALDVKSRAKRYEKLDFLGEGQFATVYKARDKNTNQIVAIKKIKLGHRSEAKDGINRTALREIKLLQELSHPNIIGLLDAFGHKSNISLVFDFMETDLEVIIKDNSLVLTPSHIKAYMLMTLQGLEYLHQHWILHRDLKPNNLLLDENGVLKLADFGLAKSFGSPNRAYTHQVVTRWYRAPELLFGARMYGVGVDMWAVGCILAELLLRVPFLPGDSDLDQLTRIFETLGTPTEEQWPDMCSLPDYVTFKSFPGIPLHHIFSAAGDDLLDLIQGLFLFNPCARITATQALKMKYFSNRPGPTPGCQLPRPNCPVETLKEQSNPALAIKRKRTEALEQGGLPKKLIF

CDK2/cyclin A1 = CDK2/cyclin A1 (Homo sapiens, UniProt P24941); test: NanoBRET target engagement, CDK2-NanoLuc co-expressed with cyclin A1 in HEK-293; details: probe 5 0.5µM
CDK6 = CDK6 (Homo sapiens, UniProt Q00534); test: Real-time analysis of engagement (kobs, IC50 vs time) in live cells, CDK6; details: real-time BRET, 25 °C; response to reviewers
CDK6, sequence (Q00534 whole entry): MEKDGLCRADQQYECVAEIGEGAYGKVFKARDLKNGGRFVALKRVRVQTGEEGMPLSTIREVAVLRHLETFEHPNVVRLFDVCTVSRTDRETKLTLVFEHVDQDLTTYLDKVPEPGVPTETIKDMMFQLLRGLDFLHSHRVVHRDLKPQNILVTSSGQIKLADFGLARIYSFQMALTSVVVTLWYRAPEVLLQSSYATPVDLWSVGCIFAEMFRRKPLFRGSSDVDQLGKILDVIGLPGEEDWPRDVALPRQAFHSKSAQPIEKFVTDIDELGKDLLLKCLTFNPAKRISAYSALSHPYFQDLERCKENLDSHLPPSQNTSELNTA
CDK6, sequence (P24385 whole entry partner): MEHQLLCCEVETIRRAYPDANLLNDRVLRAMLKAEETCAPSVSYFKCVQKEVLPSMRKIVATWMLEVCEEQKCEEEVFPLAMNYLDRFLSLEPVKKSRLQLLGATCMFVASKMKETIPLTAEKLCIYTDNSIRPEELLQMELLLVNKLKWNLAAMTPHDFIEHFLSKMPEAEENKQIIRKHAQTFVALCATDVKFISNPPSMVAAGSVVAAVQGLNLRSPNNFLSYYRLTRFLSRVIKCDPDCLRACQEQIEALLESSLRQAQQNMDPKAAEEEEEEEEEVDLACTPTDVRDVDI
Experimental: CDK2/Cyclin E1 complex was measured in the donor NanoBRET channel (using the standard 450 nm bandpass filter on the Glomax Discover plate reader). Ternary complex was measured in the presence […]
the acceptor NanoBRET channel (using the standard 600 nm longpass filter on the Glomax Discover plate reader). Total LgBiT expression level was determined in the presence of a saturating concentration […]
mg/mL digitonin (as a permeabilization agent). […]
respectively, at probe concentrations identical to those described for steady state analysis of target engagement. Cells were pre-equilibrated with energy transfer probe for 40 min prior to addition of […]
intervals at 25 °C (temperature reduced to avoid evaporation of cell culture medium). To quantify […]
vs time. Apparent association rate was also plotted as k obs vs [RGB286638], where kobs was determined using the one phase association equation (Supplementary Equation 2) in graphpad prism.
Y=Y0 + (Plateau-Y0)*(1-e-K*X) (2) where Y = mBRET ratio, X = time, and K = the observed rate constant ( kobs). Both analyses support […]
Generation of endogenously edited CDK-HiBiT cell lines and target engagement analysis at endogenous protein levels. HEK293 cells were edited to express HiBiT fused to the N -terminus of CDK9 or the C-terminus of CDK16, as described previously 3. For CDK9, the sequence of the guide RNA was […]

Compound: COCCN1CCN(Cc2ccc(-c3n[nH]c4c3C(=O)c3c(NC(=O)NN5CCOCC5)cccc3-4)cc2)CC1 [RGB286638]
- inhibition at 10 µM (CDK3/Cyclin E1; average of experiments): 91.3%
- inhibition at 10 µM (CDK3/Cyclin E1; independent experiment 1): 89.1%
- inhibition at 10 µM (CDK3/Cyclin E1; independent experiment 2): 93.6%
- IC50 (CDK3/Cyclin E1; average (± SEM where n=3)): 12 nM
- IC50 (CDK3/Cyclin E1; independent experiment 1): 14 nM
- IC50 (CDK3/Cyclin E1; independent experiment 2): 10 nM
- inhibition at 10 µM (CDK7; average of experiments): 93.9%
- inhibition at 10 µM (CDK7; independent experiment 1): 91%
- inhibition at 10 µM (CDK7; independent experiment 2): 96.7%
- CDK7 Occupancy (%) (CDK7; LOG10([RGB-286638]) 0.045757 LOG10(µM)): 97.0886%
- CDK7 Occupancy (%) (CDK7; LOG10([RGB-286638]) 0.522879 LOG10(µM)): 96.5823%
- CDK7 Occupancy (%) (CDK7; LOG10([RGB-286638]) 1 LOG10(µM)): 97.4684%
- CDK7 Occupancy (%) (CDK7; LOG10([RGB-286638]) -0.43136 LOG10(µM)): 93.9241%
- CDK7 Occupancy (%) (CDK7; LOG10([RGB-286638]) -0.90849 LOG10(µM)): 87.0886%
- CDK7 Occupancy (%) (CDK7; LOG10([RGB-286638]) -1.38561 LOG10(µM)): 72.7848%
- CDK7 Occupancy (%) (CDK7; LOG10([RGB-286638]) -1.86273 LOG10(µM)): 53.2911%
- CDK7 Occupancy (%) (CDK7; LOG10([RGB-286638]) -2.33985 LOG10(µM)): 31.2658%
- CDK7 Occupancy (%) (CDK7; LOG10([RGB-286638]) -2.81697 LOG10(µM)): 12.6582%
- CDK7 Occupancy (%) (CDK7; LOG10([RGB-286638]) -3.29409 LOG10(µM)): 6.329%
- CDK7 Occupancy (%) (CDK7; LOG10([RGB-286638]) -3.77121 LOG10(µM)): 1.266%
- IC50 (CDK7; average (± SEM where n=3), read-out: CDK7 IC50): 16 ± 5 nM
- IC50 (CDK7; independent experiment 1, read-out: CDK7 IC50): 11 nM
- IC50 (CDK7; independent experiment 2, read-out: CDK7 IC50): 11 nM
- IC50 (CDK7; independent experiment 3, read-out: CDK7 IC50): 26 nM
- IC50 (CDK7; live HEK-293, 2 h, mean ± S.E.M. (n=3) or mean (n=2), read-out: IC50 for CDK/cyclin complexes, CDK7): 12 to 16 nM
- increase of CDK2 engagement potency with cyclin E1 compared with cyclin A1 co-expression (CDK2/cyclin A1): ~2 orders of magnitude
- CDK6 off rate from kobs values (CDK6): > 300 min
